Assay results from patent EP4817688A2, “DEGRADING PKCß1 TO TREAT CANCER” (Mayo Foundation for Medical Education and Research, priority 2020, dated 2022).
Where “and” joins values, the source holds several entries; their conditions need not be identical. Identical values can stand only once. Like-named read-outs stand apart in the source and are kept apart here.

How the values were obtained:
[1] = system: PKCβ1, E2F1, and Cyclin D1; assay: western blot in BT549 and MDAMB436 cells (Example 6); type: cell-based; details: 1 µM, 24, 48, and 72 hours
Description: TNBC BT549 and MDAMB436 cells were cultured in phenol-red free DMEM/F12 medium supplemented with 10% fetal bovine serum (FBS) and 1% AA. On day 1, cells were plated at a density of 2 x 10^5 BT549 cells or 4 x 10^5 MDAMB436 cells in a 6-well plate (two wells per treatment). The next day, cells were treated with DMSO, 1 µM Pr-9 (positive control), 1 µM Pr-9-1, 1 µM Pr-9-4, or 1 µM ENDX (negative control). Radioimmunoprecipitation Assay (RIPA) protein lysates were collected 24, 48, and 72 hours after treatment.
For western blot analysis, 25 µg of protein lysates were run on Criterion precast 10% Bis-Tris gel, transferred to PVDF membrane, incubated in TBST-5% milk for one hour, and then incubated overnight with PKCβ1 (SC8049, mouse, 1:200), E2F1 (SC251, mouse, 1:250), Cyclin D1 (CS2978, rabbit, 1:1000), or Actin (Sigma A2228, mouse, 1:10,000 or CS8457, rabbit, 1:2000) primary antibodies in TBST-5% BSA solution. Membranes were washed in TBS-T, incubated for one-hour in HRP-linked anti-rabbit or anti-mouse secondary antibodies in TBST-5% milk, and washed in TBS-T. Bands were developed using west-pico or west-femto chemiluminescent substrate reagents.

[2] = system: BT549 cells; assay: crystal violet (CV) proliferation assay, BT549; type: cell-based; details: Homo sapiens, BT-549, BT549 (PKCβ1^high, Rb^regative) 2000 cells
Description: (§1) Cell proliferation rates were determined using crystal violet assays. One thousand cells per well were plated in 96 well tissue culture plates and treated the following day with a bifunctional compound or control for 7 days in replicates of 8. Cells were fixed with 25% glutaraldehyde for 10 minutes with shaking, washed 5 times with distilled water, stained with a 1% crystal violet solution (solubilized in 25% methanol) for 10 minutes, washed again 5 times and allowed to dry. De-staining was performed using […] sodium citrate in 50% ethanol followed by quantification using a 96 well spectrophotometer set at an absorbance of 550 nm.

[3] = system: MDAMB436 cells; assay: crystal violet (CV) proliferation assay, MDAMB436; type: cell-based; details: Homo sapiens, MDA-MB-436, MDAMB436 (PKCβ1^low, Rb^negative) 2000 cells
Description: as §1

[4] = system: Rb-proficient MDAMB231 and Rb-deficient BT549 and MDAMB436 cells; assay: crystal violet (CV) proliferation assay, TNBC cells (text statements covering several lines); type: cell-based; details: MDAMB231 and BT549 cells (FIG. 4A and TABLE 1)
Description: as §1

[5] = pharmacokinetics in female CD1 mice, plasma by UPLC-MS/MS; type: in vivo; details: for Tmax: read-out: time of peak plasma concentration (converted); for half-life: read-out: terminal half-life (converted); for Concentration ENDX PROTAC 9: listed as ENDX PROTAC 9, 1 mg/kg
Description: ENDX PROTAC 7 and PROTAC 9 pharmacokinetics were characterized in female CD1 mice. Blood samples were collected from mice anesthetized under isoflurane via retro-orbital eye bleed into tubes containing EDTA and immediately chilled on ice. NaF was added to the EDTA collection tubes to help stabilize the drug in whole blood for the second IV and IP studies with ENDX PROTAC 9, and for the IV and oral studies with PROTAC 7. Plasma and red blood cells were separated immediately by centrifugation in a refrigerated centrifuge at 4°C. The plasma was transferred to a separate tube and immediately frozen at -20°C.
For IV dosing, ENDX PROTAC 9 was dissolved in 10% DMSO, 10% PEG 400, and 80% normal saline for a final concentration of 0.2 mg/mL ENDX PROTAC 9 for the 1 mg/kg IV doses. ENDX PROAC 7 was dissolved in 15% DMSO, 9.44% PEG400, and 55% normal saline for a final concentration of 0.19 mg/mL for the 1 mg/kg IV doses. Blood samples (3 mice per time-point) were collected 5 minutes, 15 minutes, 0.5 hour, 1 hour, 2 hours, 4 hours, 8 hours, and 24 hours after administration of the ENDX PROTAC. […] For oral dosing, ENDX PROTAC 9 (10 mg/kg) and ENDX PROTAC 7 (10 mg/kg) were suspended in 1 mM ascorbic acid:PEG400, 1:1 v/v for a final concentration of 1.0 mg/mL ENDX PROTAC. Blood samples (three mice per time-point) were collected 15 minutes, 0.5 hour, 1 hour, 2 hours, 4 hours, 6 hours, 8 hours, and 24 hours after administering the ENDX PROTAC. For I.P. dosing, ENDX PROTAC 9 (4 mg/kg) was prepared in 1 mM ascorbic acid:PEG400, 1:1 v/v for a final concentration of 0.4 mg/mL ENDX PROTAC 9. Blood samples (three mice per time-point) were collected 15 minutes, 0.5 hour, 1 hour, 2 hours, 4 hours, 6 hours, 8 hours, and 24 hours after administration. Plasma concentrations of ENDX PROTAC 7 and 9 were measured using UPLC-MS/MS.

[6] = mouse, plasma, iv, 1 mg/kg, I.V. 1 mg/kg, first study without NaF
[7] = mouse, plasma, iv, 1 mg/kg, I.V. 1 mg/kg, second study with NaF

CCC(=C(c1ccc(O)cc1)c1ccc(OCCN(C)C(=O)COCCOCCNC(=O)Cc2ccc3c(c2)CN(C2CCC(=O)NC2=O)C3=O)cc1)c1ccccc1 (centres unmarked) [TC-Pr-009, 2-[2-(2-2-[2-(2,6-dioxopiperidin-3-yl)-1-oxo-2,3-dihydro-1H-isoindol-5-yl]acetamidoethoxy)ethoxy]-N-(2-4-[1-(4-hydroxyphenyl)-2-phenylbut-1-en-1-yl]phenoxyethyl)-N-methylacetamide]
PKCβ1 protein levels [1]: altered to varying extent | protein levels of E2F1 and Cyclin D1 ([1]; listed as Pr-9): clearly reduced | IC50 [2]: 67 nM | IC50 [3]: 64 nM | apoptosis [4]: induced apoptosis | stability in whole blood ([5]; inferred from IV studies with and without NaF): unstable in whole blood | Cmax ([5]; mouse, plasma, ip, 4 mg/kg, I.P. 4 mg/kg, read-out: peak plasma concentration): 135 ng/mL | bioavailability ([5]; mouse, plasma, ip, I.P. 4 mg/kg, read-out: bioavailability of the I.P. dose): 225% | Tmax ([5]; mouse, plasma, ip, I.P. 4 mg/kg): 30 min | clearance [5, 6]: 730 mL/min/kg | half-life [5, 6]: 60 min | Cmax ([5]; mouse, plasma, iv, 1 mg/kg, I.V. 1 mg/kg, samples collected without added NaF, read-out: peak plasma concentration): 47.2 ng/mL | clearance [5, 7]: 478 mL/min/kg | half-life [5, 7]: 39.6 min | Cmax ([5]; mouse, plasma, iv, 1 mg/kg, I.V. 1 mg/kg, second study, NaF added to EDTA tubes, read-out: peak plasma concentration): 70.9 ng/mL | concentration at 0.5 h ([5]; mouse, plasma, iv, 1 mg/kg, plasma, IV 1 mg/kg, EDTA without NaF, 30 minutes, individual mice, read-out: Concentration ENDX PROTAC 9): 1.81 ng/mL | concentration at 0.5 h ([5]; mouse, plasma, iv, 1 mg/kg, plasma, IV 1 mg/kg, all data (both IV studies), 30 minutes, read-out: Concentration ENDX PROTAC 9): 2.83 ng/mL | Tmax ([5]; mouse, plasma, iv, I.V. 1 mg/kg, samples collected without added NaF): 5 min | Cmax ([5]; mouse, plasma, po, 10 mg/kg, oral 10 mg/kg, read-out: average peak plasma concentration): 11.1 ng/mL | concentration at 0.5 h ([5]; mouse, plasma, po, 10 mg/kg, plasma, PO 10 mg/kg, 30 minutes, individual mice, read-out: Concentration ENDX PROTAC 9): 0.74 ng/mL | concentration at 8 h ([5]; mouse, plasma, po, 10 mg/kg, plasma, PO 10 mg/kg, 480 minutes, individual mice, read-out: Concentration ENDX PROTAC 9): 0.08 ng/mL | concentration at 0.25 h ([5]; mouse, plasma, po, 10 mg/kg, plasma, TABLE 7, titled PO pk (10 mg/kg), 15 minutes, individual mice, read-out: Concentration ENDX PROTAC 9): 108 ng/mL | concentration at 0.5 h ([5]; mouse, plasma, po, 10 mg/kg, plasma, TABLE 7, titled PO pk (10 mg/kg), 30 minutes, individual mice, read-out: Concentration ENDX PROTAC 9): 166 ng/mL | concentration at 1 h ([5]; mouse, plasma, po, 10 mg/kg, plasma, TABLE 7, titled PO pk (10 mg/kg), 60 minutes, individual mice, read-out: Concentration ENDX PROTAC 9): 131 ng/mL | bioavailability ([5]; mouse, plasma, oral 10 mg/kg vs IV 1 mg/kg, read-out: Oral bioavailability): 8.8% | Tmax ([5]; mouse, plasma, oral 10 mg/kg): 60 min | Concentration ENDX PROTAC 9 ([5]; plasma, IV 1 mg/kg, EDTA without NaF, 5 minutes, individual mice): 49.449 ng/mL and 47.9659 ng/mL and 12.7855 ng/mL | Concentration ENDX PROTAC 9 ([5]; plasma, IV 1 mg/kg, EDTA without NaF, 15 minutes, individual mice): 44.1034 ng/mL and 9.4992 ng/mL and 7.241 ng/mL | Concentration ENDX PROTAC 9 ([5]; plasma, IV 1 mg/kg, EDTA without NaF, 30 minutes, individual mice): 1.662 ng/mL
